{"source": "patent US20260224571A1", "about": "“AZACYCLOALKANE COMPOUND AND PHARMACEUTICAL COMPOSITION, AND USE THEREOF” (Prime Gene Therapeutics Co., Ltd., priority 2023, published 2026)", "key": {"[1]": {"molecular_target": "ROCK1 (Homo sapiens, UniProt Q13464)", "sequence (Q13464 whole entry)": "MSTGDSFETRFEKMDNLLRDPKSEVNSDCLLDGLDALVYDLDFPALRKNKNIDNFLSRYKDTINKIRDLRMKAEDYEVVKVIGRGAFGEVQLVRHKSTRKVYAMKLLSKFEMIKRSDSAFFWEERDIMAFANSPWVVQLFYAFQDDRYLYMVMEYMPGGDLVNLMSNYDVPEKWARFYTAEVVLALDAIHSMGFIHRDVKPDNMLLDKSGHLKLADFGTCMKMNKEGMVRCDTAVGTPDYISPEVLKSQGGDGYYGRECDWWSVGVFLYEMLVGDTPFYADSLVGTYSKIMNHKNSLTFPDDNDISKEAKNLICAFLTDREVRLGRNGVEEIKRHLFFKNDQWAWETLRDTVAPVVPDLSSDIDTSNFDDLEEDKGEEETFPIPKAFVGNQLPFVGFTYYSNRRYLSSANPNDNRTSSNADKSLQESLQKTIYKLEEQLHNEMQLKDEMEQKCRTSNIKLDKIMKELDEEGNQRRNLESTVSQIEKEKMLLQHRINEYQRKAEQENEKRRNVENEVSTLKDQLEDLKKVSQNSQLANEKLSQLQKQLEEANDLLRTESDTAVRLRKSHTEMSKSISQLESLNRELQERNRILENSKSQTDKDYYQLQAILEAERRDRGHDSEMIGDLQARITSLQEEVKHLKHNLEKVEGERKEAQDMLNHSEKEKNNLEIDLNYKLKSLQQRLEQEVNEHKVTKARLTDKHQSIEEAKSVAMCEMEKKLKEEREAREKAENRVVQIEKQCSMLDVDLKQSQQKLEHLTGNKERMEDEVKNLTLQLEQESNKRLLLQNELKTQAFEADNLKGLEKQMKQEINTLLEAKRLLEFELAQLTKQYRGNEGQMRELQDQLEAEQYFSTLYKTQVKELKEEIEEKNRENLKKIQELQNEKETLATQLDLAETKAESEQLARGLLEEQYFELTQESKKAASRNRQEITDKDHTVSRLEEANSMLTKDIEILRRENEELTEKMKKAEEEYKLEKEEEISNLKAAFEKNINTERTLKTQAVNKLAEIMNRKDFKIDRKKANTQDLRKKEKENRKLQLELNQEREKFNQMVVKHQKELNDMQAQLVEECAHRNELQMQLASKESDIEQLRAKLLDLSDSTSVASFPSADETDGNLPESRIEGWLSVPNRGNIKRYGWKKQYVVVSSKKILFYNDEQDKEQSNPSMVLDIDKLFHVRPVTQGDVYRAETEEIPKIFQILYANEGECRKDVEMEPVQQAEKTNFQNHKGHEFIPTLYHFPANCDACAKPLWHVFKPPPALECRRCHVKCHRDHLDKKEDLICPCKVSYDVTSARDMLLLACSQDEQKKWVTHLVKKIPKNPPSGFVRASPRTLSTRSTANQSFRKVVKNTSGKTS", "assay": "ROCK1 kinase enzymatic activity (HTRF, STK2 substrate)", "format": "biochemical", "conditions": "ROCK1 kinase reacted at room temperature for 20 minutes", "from_the_text": "(§1) The kinase activity data was expressed by comparing the kinase activity of the test compound and that of the blank group (containing only DMSO), and the IC50 value was obtained by curve fitting using Prism software (GraphPad7.0)."}, "[2]": {"molecular_target": "ROCK2 (Homo sapiens, UniProt O75116)", "sequence (O75116 whole entry)": "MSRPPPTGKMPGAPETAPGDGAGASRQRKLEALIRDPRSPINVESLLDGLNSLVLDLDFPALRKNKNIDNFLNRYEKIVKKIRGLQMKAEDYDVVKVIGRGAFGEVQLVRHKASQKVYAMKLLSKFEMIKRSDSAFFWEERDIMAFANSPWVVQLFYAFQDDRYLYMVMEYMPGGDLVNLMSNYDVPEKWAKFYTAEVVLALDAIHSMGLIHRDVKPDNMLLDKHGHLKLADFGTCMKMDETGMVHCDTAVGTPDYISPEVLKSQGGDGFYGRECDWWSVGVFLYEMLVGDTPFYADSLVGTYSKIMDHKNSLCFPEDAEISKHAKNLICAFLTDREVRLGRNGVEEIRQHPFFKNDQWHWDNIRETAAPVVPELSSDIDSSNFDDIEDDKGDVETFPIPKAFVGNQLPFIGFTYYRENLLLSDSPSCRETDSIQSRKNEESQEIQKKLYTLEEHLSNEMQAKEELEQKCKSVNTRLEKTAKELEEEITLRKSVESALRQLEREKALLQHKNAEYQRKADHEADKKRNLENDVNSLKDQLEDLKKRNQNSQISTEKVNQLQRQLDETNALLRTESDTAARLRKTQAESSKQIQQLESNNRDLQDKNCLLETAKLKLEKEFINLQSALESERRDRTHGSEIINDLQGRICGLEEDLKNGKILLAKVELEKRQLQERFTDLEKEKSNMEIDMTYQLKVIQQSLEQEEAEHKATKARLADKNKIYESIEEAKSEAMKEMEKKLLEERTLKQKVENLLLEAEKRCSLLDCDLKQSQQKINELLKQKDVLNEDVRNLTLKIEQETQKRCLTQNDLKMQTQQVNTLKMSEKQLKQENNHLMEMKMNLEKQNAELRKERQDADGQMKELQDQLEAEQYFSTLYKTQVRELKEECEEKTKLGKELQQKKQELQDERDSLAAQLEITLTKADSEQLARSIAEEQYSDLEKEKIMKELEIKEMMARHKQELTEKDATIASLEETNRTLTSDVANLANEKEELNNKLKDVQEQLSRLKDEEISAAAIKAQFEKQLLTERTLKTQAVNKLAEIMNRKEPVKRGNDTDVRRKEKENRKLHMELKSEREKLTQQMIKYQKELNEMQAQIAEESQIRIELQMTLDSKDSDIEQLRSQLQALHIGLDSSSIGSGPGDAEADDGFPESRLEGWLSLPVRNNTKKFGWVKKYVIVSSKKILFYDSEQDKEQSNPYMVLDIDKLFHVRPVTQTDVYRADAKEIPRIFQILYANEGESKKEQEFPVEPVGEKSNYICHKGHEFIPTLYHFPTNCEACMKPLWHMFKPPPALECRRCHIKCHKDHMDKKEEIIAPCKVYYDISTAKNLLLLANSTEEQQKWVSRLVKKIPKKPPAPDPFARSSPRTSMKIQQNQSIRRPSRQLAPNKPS", "assay": "ROCK2 kinase enzymatic activity (HTRF, STK2 substrate)", "format": "biochemical", "conditions": "ROCK2 kinase reacted at room temperature for 30 minutes", "from_the_text": "as §1"}, "[3]": {"test_system": "phosphorylation of myosin light chain T18/S19", "assay": "In Cell Western for phosphorylation of myosin light chain in A7r5 cells", "format": "cell-based", "conditions": "rat smooth muscle cell line A7r5, 1 hour with compound, phospho-MLC-T18/S19; read-out: cellular activity IC50", "from_the_text": "The rat smooth muscle cell line A7r5 was used, and the A7r5 cell culture conditions were DMEM containing 10% FBS. Phspho-MLC-T18/S19 specific antibody and a second detection antibody were used to detect the phosphorylation level of myosin light chain by In Cell Western. Cells treated with positive compounds were used as positive controls, while the group without compounds but with compound solvents was used as negative controls. DRAQ5 stained cell nuclei were used as internal references. GraphPad Prism 7.0 software was used, and fitting was carried out by using a non-linear regression curve with varying slopes to determine the absolute IC50 value.\nOn the first day, A7r5 cells were resuspended in serum-free medium and seeded into 384 wells of PDL coated transparent black plates at a density of 5000 cells per well. Serum starvation culture was performed for 4 hours, and the cells were incubated with the compound in serum-free medium for 1 hour. 50 μL of 8% PFA (polyformaldehyde) was added to each well and fixed at room temperature for 1 hour. The liquid in the wells was discard and 90 μL of ice methanol was added to each well to permeabilize the cells at 4° C. for 1 hour. Then, PBST (0.1% Tween20-PBS) was added using an automatic separator to wash three times. After patting the plate for drying, 50 μL blocking solution was added to each well for sealing at room temperature for 1 hour. The phspho-MLC-T18/S19 specific antibody was diluted with the blocking solution at a ratio of 1:200. After adding 20 μL to each well, incubation was carried out overnight at 4° C. with a sealed film.\nOn the second day, the liquid in the wells was discarded and PBST was added using an automatic separator to wash the plate 5 times. After patting the plate for drying, the second detection antibody was diluted with blocking solution at a ratio of 1:800 and DRAQ5 at a ratio of 1:1000. After adding 20 μL to each well, incubation was carried out at room temperature for 1 hour. Then, the liquid in the wells was discarded and PBST was added using an automatic separator to wash the plate 3 times, followed by adding ddH2O to wash the plate 3 times. After patting the plate for drying, it was scanned using a LICOR Odyssey near-infrared imaging scanner."}}, "note": "Counter-ions that a name gives are not always drawn."}
{"smiles": "C[C@@H](N)CS(=O)(=O)N1CC(CC#N)(n2cc(-c3ncnc4[nH]ccc34)c(N)n2)C1", "note": "[Example 88, (R)-2-(3-(3-amino-4-(7H-pyrrolo[2,3-d]pyrimidin-4-yl)-1H-pyrazol-1-yl)-1-((2-aminopropyl)sulfonyl)azetidine-3-yl)acetonitrile trifluoroacetate salt]", "values": [{"measurement": "IC50", "setting": "[1]", "result": "< 0.005", "unit": "µM"}, {"measurement": "IC50", "setting": "[2]", "result": "< 0.005", "unit": "µM"}, {"measurement": "IC50", "setting": "[3]", "result": 0.826, "unit": "µM"}]}
